US20250002569A1, “METHOD OF TREATING OSTEOARTHRITIS” (AlaMab Therapeutics, Inc., priority 2023, published 2025)
Structures can show the parent of a compound that is named as a salt.

Tests used:
Assay type in all cases: in vivo, Sprague Dawley (SD) rats
[1] = system: rats with osteoarthritis induced by pMMx+ACLT; experiment: Weight bearing difference of hind legs (biped balance measurement) in pMMx+ACLT osteoarthritis rat model; details: for Weight bearing difference of hind legs: Duloxetine 5 mg/kg i.g. daily
Procedure: (§1) After acclimation of the animals, the animals were evaluated for normal pain threshold (on Day 1 of study) using the Von Frey, or Up-Down, method, and for biped balance degree of the knee joint on the surgical side (right hind limb) using a biped balance tester. The rats were then anesthetized with isoflurane, and the knee joints were depilated and disinfected. Osteoarthritis was induced in the animals by partial medial meniscectomy in combination with anterior cruciate ligament transection (pMMx+ACLT). Briefly, the skin and joint cavity close to the inner side of the right knee were cut, the knee joint was placed in the maximum flexion state, with the joint cavity exposed and the medial meniscus separated. The medial ⅓ meniscus and the anterior cruciate ligament were then cut-off. For the control animal group (no osteoarthritis induction), only the skin was cut to open the joint cavity without removing the ligament or meniscus. The date of the osteoarthritis model establishment was Day 8 of the study.
(§2) One week after model establishment (Day 15 of study), before administration of treatment, the basic pain threshold of plantar pain was evaluated on the operation side for each of the animals, and the osteoarthritis model rats were evenly divided according to the basic Von Frey reaction value (2-5), with 8 animals used for each of the osteoarthritis model group (vehicle-treatment), the positive control drug (duloxetine) 5 mg/kg group, and the ALMB-0166 15 mg/kg, 25 mg/kg, and 50 mg/kg dose groups. After grouping, drug treatment was started on Day 15 of study. For each of the ALMB-0166-treated test groups, the treatment was administered intravenously, once a week, with four total doses (on Day 15, 22, 29, and 36 of the study, corresponding to day 1, 8, 15 and 22 of treatment). For the positive control group, duloxetine was administered orally every day until the end of the experimental cycle.
(§3) Weight measurements were taken for animals in each test group on Days 15, 22, 29 and 36 of the study. On Days 16, 23, 30 and 37, the gait of each animal, the change of plantar pain threshold induced by knee joint lesions on the operative side, and the weight bearing of both lower limbs were measured for each animal was scored on according to the Coderre scoring method, the Up-Down method, and bipedal balance pain testing, respectively.
A bipedal balance pain tester was used to evaluate the weight bearing of both lower limbs for each animal. Each animal was placed in the plexiglass cover of the biped balance pain instrument. After the animal completed their exploratory behavior, the forelimbs of the rats laid on the incline of the device, and the hind limbs stood on the left and right balance plates respectively. […] The measurements were repeated three times for each animal, with an interval of 10 seconds between each replicate measurement.
(§4) The gait scoring, plantar pain threshold, and weight bearing differential were expressed as the mean and […] (Mean±SD). The data between model group and administration group at multiple time points were analyzed by repeated measures analysis of variance method with SPSS Statistics 21 software, and Tamhane's method for subsequent analysis. P<0.05 was considered to have a significant difference, and p<0.01 was considered to have a very significant difference. The final data were plotted with GraphPad Prism 6 software.

[2] = system: rats with osteoarthritis induced by pMMx+ACLT; experiment: Mechanical pain threshold of plantar pain (Von Frey Up-Down method, 50% MWT) in pMMx+ACLT osteoarthritis rat model; details: for Percent Increase in 50% MWT (g) (as compared to Day 15 of study) / Pain threshold of plantar pain, 50% MWT: Duloxetine 5 mg/kg i.g. daily
Procedure: as §1, §2, §3
The Up-Down method was used to measure the plantar pain threshold. Following the Up-Down methos, each rat was placed in a transparent enclosure with a sieve-shaped metal plate at the bottom, and the animal was allowed to adapt to about 15 minutes until the autonomous exploration and grooming activities stop. Von Frey probes were then used to vertically stimulate the middle of the hind plantar of each rat to make the plantar slightly s-shaped for 5 second, and the paw withdrawal response was observed. A positive response was noted if the paw was sharply withdrawn or there was flinching upon removal. The interval between each measurement was about 10 sec. If no response was observed after probe stimulation, it was regarded as a negative reaction.
For scoring the mechanical pain, the rats were stimulated with a series of Von Frey probes of 0.4, 0.6, 1, 1.4, 2, 4, 6, 8, 10, and 15 g). Testing was start with a 2 g probe, and if a positive reaction occurred, it was recorded as an “X,” and testing was continued with a 1.4 g probe. […] Testing was continued accordingly, using the probes successively without circumvention. […] If a positive reaction was induced even by the 0.4 g probe, the 50% MWT was recorded as 0.4 g. […]

[3] = Weight of rats with osteoarthritis induced by pMMx+ACLT; details: Duloxetine 5 mg/kg i.g. daily
Procedure: Male Sprague Dawley (SD) rats (Specific Pathogen Free grade; Shanghai Slac Laboratory Animal Co. Ltd) were obtained in the study. Each rat was weight at the start of treatment, with the average weight ranging from 200-220 grams. Upon arrival at the test facility, the animals were housed at five rats per cage and acclimated for five to seven days prior to initiation of treatment.
as §1, §2, §3

[4] = system: rats with osteoarthritis induced by pMMx+ACLT; experiment: Gait score (Coderre scoring method) in pMMx+ACLT osteoarthritis rat model; details: for Gait Score: Duloxetine 5 mg/kg i.g. daily
Procedure: as §1, §2, §3
Coderre gait method was used to measure the gait of each animal. The gait was measured according to the following scoring: standard (Grade 0: normal walking, 0 point); Level 1 (sight claudication, slight bending below knee joint, 2 points); Level 2 (claudication, the affected limb can touch the ground, 4 points); Level 3 (severe claudication, the affected limb leaves the ground and walk on three feet, 6 points).
as §4

[5] = Day 1 (before model establishment)
[6] = duloxetine 5 mg/kg, multivariate test, p<0.05

CNCC[C@H](Oc1cccc2ccccc12)c1cccs1 [Duloxetine, Duloxetine hydrochloride]
Weight bearing difference of hind legs [1, 5]: 2.96 ± 1.88 g
Weight bearing difference of hind legs ([1]; Day 15 (treatment start)): 104.28 ± 11.40 g
Weight bearing difference of hind legs ([1]; Day 16): 95.60 ± 2.27 g
Weight bearing difference of hind legs ([1]; Day 23): 80.91 ± 1.98 g
Weight bearing difference of hind legs ([1]; Day 30): 56.80 ± 4.06 g
Weight bearing difference of hind legs ([1]; Day 37): 51.12 ± 4.81 g
Decrease in hind limb weight bearing difference over time compared with osteoarthritis model (vehicle-treated) group [1, 6]: significant
Hind limb weight bearing difference at each time point ([1]; duloxetine test group, Days 16, 23, 30 and 37, p<0.01): significant decrease
Percent Increase in 50% MWT (g) (as compared to Day 15 of study) ([2]; Day 1): 0.0%
Pain threshold of plantar pain, 50% MWT [2, 5]: 15.00 ± 0.00 g
Percent Increase in 50% MWT (g) (as compared to Day 15 of study) ([2]; Day 15): 0.7%
Pain threshold of plantar pain, 50% MWT ([2]; Day 15 (before administration of treatment)): 3.23 ± 0.64 g
Pain threshold of plantar pain, 50% MWT ([2]; Day 16): 5.27 ± 2.72 g
Percent Increase in 50% MWT (g) (as compared to Day 15 of study) ([2]; Day 16): 52.9%
Pain threshold of plantar pain, 50% MWT ([2]; Day 23): 7.11 ± 2.45 g
Percent Increase in 50% MWT (g) (as compared to Day 15 of study) ([2]; Day 23): 90.3%
Pain threshold of plantar pain, 50% MWT ([2]; Day 29): 8.47 ± 4.92 g
Percent Increase in 50% MWT (g) (as compared to Day 15 of study) ([2]; Day 30): 108.2%
Pain threshold of plantar pain, 50% MWT ([2]; Day 37): 9.84 ± 4.65 g
Percent Increase in 50% MWT (g) (as compared to Day 15 of study) ([2]; Day 37): 70.9%
Pain threshold of plantar pain over time compared with osteoarthritis model (vehicle-treated) group [2, 6]: significant increase
Pain threshold of plantar pain at each time point ([2]; duloxetine dosage group, Days 23, 30 and 37 of the study, p<0.05): significantly increased
Weight ([3]; Day 1 of study (before treatment)): 223.8 ± 7.8 g
Weight ([3]; Day 8 of study (model establishment, before treatment)): 280.1 ± 11.2 g
Weight ([3]; Day 15 of study (treatment start)): 317.8 ± 20.4 g
Weight ([3]; Day 22 of study): 353.9 ± 23.0 g
Weight ([3]; Day 29 of study): 389.9 ± 26.2 g
Weight ([3]; Day 36 of study): 423.0 ± 30.0 g
Gait Score ([4]; Day 16 of study): 3.5 ± 0.9
Gait Score ([4]; Day 23 of study): 3.0 ± 1.1
Gait Score ([4]; Day 30 of study): 1.3 ± 1.0
Gait Score ([4]; Day 37 of study): 0.0 ± 0.0
Gait score compared to the vehicle-treated group ([4]; duloxetine 5 mg/kg, multivariate test, p>0.05): no significant different
